Here are results for 51 compounds from PubChem BioAssay AID1996.

In brackets after ≈: the same amount, converted by molar mass.

For the data set the following is noted: buffer; pH 7.4; 200.0 µM.
With `CC1=C(C)/C(=N\OS(=O)(=O)c2ccc(C)cc2)C=CC1=O`, the solubility (kinetic) – broadly, solubility judged after dilution from a stock solution rather than from solid – came to 3.5 µg/mL (≈ 11.5 µM).
The result for `COc1ccc(C2CN(C)CC2C(=O)c2ccc(C)cc2)cc1Cl` (stereo unspecified) reads 40.1 µg/mL (≈ 117 µM); that for `CCCCNC(=S)Nc1ccc(Oc2ccccc2)cc1`, 6.5 µg/mL (≈ 21.6 µM); that for `O=C1N(c2ccccc2)c2ccccc2C1(O)C(F)(F)F` (stereo unspecified), above 44 µg/mL.
The result for `O=C(O)CCCCCCCCCC[n+]1ccccc1.[Br-]` reads 47.9 µg/mL.
As for `CCn1c(NCCO)nc2c(c1=O)C(C)(CC)Cc1ccccc1-2` (stereo unspecified), the figure is 12.8 µg/mL (≈ 39.1 µM); as for `CC(=O)N1CCN(c2ccccc2NC(=O)c2ccc(C#N)cc2F)CC1`, 52.6 µg/mL (≈ 144 µM).
Compound `Cc1ccc(N2CCN(C(=O)Nc3cccc([N+](=O)[O-])c3)CC2C)cc1` (stereo unspecified) returned a kinetic solubility of 22 µg/mL (≈ 62.1 µM).
The result for `C=C(c1ccccc1O)n1ccnc1` reads above 27.9 µg/mL; that for `COC(=O)c1ccc(CNC(=O)c2ccc(S(=O)(=O)N3CCCCCC3)cc2)cc1`, 3.6 µg/mL (≈ 8.36 µM).
In the case of `COCC(C)n1c(SCC(=O)Nc2c(C)n(C)n(-c3ccccc3)c2=O)nc2ccccc2c1=O` (stereo unspecified), the kinetic solubility is above 74 µg/mL.
As for `Nc1c(N(CCCO)C(=O)C2CCCCC2)c(=O)[nH]c(=O)n1Cc1ccccc1`, the figure is above 60.1 µg/mL; as for `CC1CCCC(NC(=O)Cn2cc([N+](=O)[O-])ccc2=O)C1C` (stereo unspecified), 44 µg/mL (≈ 143 µM); as for `Cc1ccc(NC(=S)N(Cc2ccccc2)C(C)C)cc1`, 7.6 µg/mL (≈ 25.5 µM).
As for `O=c1[nH]c(CSc2nc3ccccc3s2)nc2ccccc12`, the figure is 1.5 µg/mL (≈ 4.61 µM).
As for `O=C(CCC(=O)Nc1ccccc1Cl)NN=C1CCCC1`, the figure is above 46.2 µg/mL.
As for `COc1cc(OC)cc(/C(N)=N/O)c1`, the kinetic solubility was 26.9 µg/mL (≈ 137 µM).
The result for `O=C(Cc1ccccc1)N1CCC2(CC1)NCCc1[nH]cnc12` reads 43.1 µg/mL (≈ 139 µM); that for `Cc1cc(=O)[nH]c(SCC(=O)Nc2ccc(F)c([N+](=O)[O-])c2)n1`, above 50.7 µg/mL.
The result for `CCOC(=O)C1CCN(C(=O)CCC2CCCC2)CC1` reads 37.6 µg/mL (≈ 134 µM); that for `CC1CN(C(=O)CCCN2C(=O)c3ccccc3C2=O)CC(C)O1` (stereo unspecified), above 49.6 µg/mL.
The result for `O=C(NCc1ccc(F)cc1)C1CC(=O)N(C2CCCC2)C1` (stereo unspecified) reads above 45.7 µg/mL; that for `CCC(C)Nc1nc2c(c(=O)[nH]c(=O)n2C)n1CCCc1ccccc1` (stereo unspecified), 36.9 µg/mL (≈ 104 µM); that for `CC1CCCCN1C(=O)COC(=O)Cc1c[nH]c2ccccc12` (stereo unspecified), above 47.2 µg/mL.
Regarding `O=S(=O)(/N=C(/Nc1cccnc1Cl)c1ccccc1)c1ccccc1`, the solubility (kinetic) was above 55.8 µg/mL.
The result for `O=C1CCC2=C(CCCC2=O)N1` reads 24.2 µg/mL (≈ 146 µM).
The result for `O=C(c1cc2cc(Cl)ccc2[nH]1)N1CCN(c2ccccc2F)CC1` reads below 0.3 µg/mL; that for `CCN(CC)C(=O)C1=C(C)NC(=S)NC1c1ccc(C)s1` (stereo unspecified), 44.1 µg/mL (≈ 136 µM); that for `Cc1nnc2c(N3CCN(CCO)CC3)nc3ccccc3n12`, above 46.9 µg/mL.
The result for `COc1ccc(OC)c(N2C(=O)CCCC2=O)c1` reads 24.7 µg/mL (≈ 99.1 µM).
In turn, `O=c1[nH]c(/C=C/c2cccc3ccccc23)nc2ccccc12` registered a kinetic solubility of 2.1 µg/mL (≈ 7.04 µM).
`CC(C)(C)N1CC(C(=O)Nc2cccc(Cl)c2Cl)CC1=O` (stereo unspecified) registered a solubility (kinetic) above 49.4 µg/mL.
The result for `CC(=O)N1CCc2ccc(S(=O)(=O)N3CCc4ccccc43)cc21` reads 0.5 µg/mL (≈ 1.46 µM); that for `N#Cc1cccc(NC(=O)COC(=O)C2CCC2)c1`, above 38.7 µg/mL.
The result for `COc1ccc(CN2C(=O)CSC2c2ccncc2)cc1` (stereo unspecified) reads above 45.1 µg/mL.
`CCOc1ncccc1C(=O)Nc1ccc(F)cc1` had a kinetic solubility of 13.7 µg/mL (≈ 52.6 µM).
`CCOC(=O)[C@@H]1CCN(Cc2ccccc2)C[C@H]1c1ccccc1.Cl` had a kinetic solubility of 30.7 µg/mL. This solubility kinetic lies about 2.2-fold higher than the previous one.
The result for `CCc1nc(NC(=O)Cc2csc(C)n2)sc1C(=O)OC` reads above 48.8 µg/mL; that for `COC(=O)c1cc2cc(Cl)ccc2nc1SC`, below 0.6 µg/mL.
As for `COc1ccc(NC(=O)c2ccc3[nH]c(C)c(C)c3c2)cc1`, the figure is 3.6 µg/mL (≈ 12.2 µM); as for `O=C(COc1ccc(Cl)cc1)Nc1nnc(C2=COCCO2)o1`, above 50.7 µg/mL; as for `Oc1cccnc1Sc1cccc(C(F)(F)F)c1`, 38.2 µg/mL (≈ 141 µM).
As for `Cc1cccn2c(=O)c(/C=C(\C#N)C(N)=O)c(Oc3ccccc3)nc12`, the figure is 7.9 µg/mL (≈ 22.8 µM).
In turn, `CC(=O)OC(C(=O)NC1CCCCC1)c1ccccc1F` (stereo unspecified) returned a kinetic solubility above 44 µg/mL.
`O=C(N/C(=C\c1ccco1)C(=O)N1CCC(O)CC1)c1ccccc1` yielded a kinetic solubility of 41.1 µg/mL (≈ 121 µM).
Compound `CC(=O)Nc1ccc(NC(=O)CCCn2cnc3ccccc3c2=O)cc1` displayed a solubility (kinetic) of 49.1 µg/mL (≈ 135 µM).
For the compound `CCOC(=O)/C(C#N)=C/Nc1cc(C(C)(C)C)sc1C(C)=O`, the kinetic solubility was below 0.3 µg/mL.
Compound `Cc1nc2ccc(NC(=O)C3COc4ccccc4O3)cc2s1` (stereo unspecified) gave a kinetic solubility of 30.9 µg/mL (≈ 94.7 µM).
As for `CC1(C)C(=O)Nc2ccccc2N1C(=O)c1ccc([N+](=O)[O-])cc1`, the figure is 2.3 µg/mL (≈ 7.07 µM).
As for `Cc1cc(C)c(C(=O)O)c(Cl)n1`, the figure is above 27.8 µg/mL; as for `CCCc1cc(=O)[nH]c(SCC(=O)N2CCCCCC2)n1`, above 46.4 µg/mL.
